# Data: patent US20240025887A1, “THIENYL AND CYCLOALKYL AMINOPYRIMIDINE COMPOUNDS AS INHIBITORS OF NUAK KINASES, COMPOSITIONS AND USES THEREOF” (Ontario Institute for Cancer Research (OICR), priority 2021, published 2024)
# How the values were obtained:
# Assay type in all cases: biochemical
# NUAK2 (h) = target: T1, NUAK2 (h) (Homo sapiens, UniProt Q9H093); experiment: NUAK2 enzymatic assay (radiometric, Eurofins); details: for IC50: radiometric, full-length recombinant enzyme
# T1 construct: This assay was done radiometrically using full-length, recombinant enzyme; purchased Eurofins
# T1 sequence (Q9H093 1-628): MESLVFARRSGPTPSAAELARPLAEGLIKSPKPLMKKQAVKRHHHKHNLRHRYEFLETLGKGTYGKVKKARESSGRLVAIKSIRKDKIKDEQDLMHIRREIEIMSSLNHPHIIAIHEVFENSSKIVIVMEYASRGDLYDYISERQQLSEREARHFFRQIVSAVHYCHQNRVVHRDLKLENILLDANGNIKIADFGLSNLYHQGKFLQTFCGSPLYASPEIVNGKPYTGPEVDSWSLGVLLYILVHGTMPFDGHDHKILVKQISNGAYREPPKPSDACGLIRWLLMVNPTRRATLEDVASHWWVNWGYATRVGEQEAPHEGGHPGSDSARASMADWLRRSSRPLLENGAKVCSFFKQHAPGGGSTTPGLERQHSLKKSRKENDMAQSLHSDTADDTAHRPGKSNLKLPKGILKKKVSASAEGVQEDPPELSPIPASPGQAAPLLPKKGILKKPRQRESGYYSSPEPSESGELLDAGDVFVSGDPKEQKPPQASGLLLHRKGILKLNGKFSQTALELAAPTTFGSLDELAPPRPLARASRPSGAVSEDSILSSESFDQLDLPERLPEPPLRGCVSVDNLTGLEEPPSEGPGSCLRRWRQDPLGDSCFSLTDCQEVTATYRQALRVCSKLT
# Description: (§1) To identify small molecule NUAK inhibitors, a biochemical NUAK2 enzymatic assay was outsourced to Eurofins. This assay was done radiometrically using full-length, recombinant enzyme. NUAK2 (h) was incubated with 8 mM MOPS pH 7.0, 0.2 mM EDTA, 300 μM […], 10 mM magnesium acetate and […] (specific activity and concentration as required). The reaction was initiated by the addition of the Mg/ATP mix. After incubation for 40 minutes at room temperature, the reaction was stopped by the addition of phosphoric acid to a concentration of 0.5%. 10 μL of the reaction was then spotted onto a P30 filter mat and washed four times for 4 minutes in 0.425% phosphoric acid and once in methanol prior to drying and scintillation counting. Compounds were routinely counter screened against Aurora A and NUAK1. The results are shown in Table 1 where IC50s are reported the following ranges: A: 0.1-10 nM; B: 11-100 nM; C: 101-1000 nM; D: >1000 nM for the compounds of Formula I)
# NUAK1 = target: T2, NUAK1 (Homo sapiens, UniProt O60285); experiment: NUAK1 counter screen
# T2 sequence (O60285 1-661): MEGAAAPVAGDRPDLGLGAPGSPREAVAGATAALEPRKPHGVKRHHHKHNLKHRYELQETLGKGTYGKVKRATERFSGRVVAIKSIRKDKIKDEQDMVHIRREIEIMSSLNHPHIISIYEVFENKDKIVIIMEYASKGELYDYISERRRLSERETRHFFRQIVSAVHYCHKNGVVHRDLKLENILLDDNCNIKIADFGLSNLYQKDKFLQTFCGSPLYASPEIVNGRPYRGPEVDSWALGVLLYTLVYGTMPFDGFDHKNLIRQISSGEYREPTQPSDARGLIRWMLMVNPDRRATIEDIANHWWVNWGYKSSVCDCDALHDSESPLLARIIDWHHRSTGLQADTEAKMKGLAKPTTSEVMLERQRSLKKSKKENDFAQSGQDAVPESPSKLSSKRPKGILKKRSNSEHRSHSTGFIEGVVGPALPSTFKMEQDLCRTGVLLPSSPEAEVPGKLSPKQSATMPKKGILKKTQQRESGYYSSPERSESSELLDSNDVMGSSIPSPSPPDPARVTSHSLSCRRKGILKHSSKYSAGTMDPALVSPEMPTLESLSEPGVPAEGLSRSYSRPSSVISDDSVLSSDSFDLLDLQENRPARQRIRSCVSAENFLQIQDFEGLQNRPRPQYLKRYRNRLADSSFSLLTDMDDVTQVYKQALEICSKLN
# Description: as §1
# Aurora A = target: T3, Aurora A (Homo sapiens, UniProt O14965); experiment: Aurora A counter screen; details: read-out: AUR-A (IC50)
# T3 sequence (O14965 1-403): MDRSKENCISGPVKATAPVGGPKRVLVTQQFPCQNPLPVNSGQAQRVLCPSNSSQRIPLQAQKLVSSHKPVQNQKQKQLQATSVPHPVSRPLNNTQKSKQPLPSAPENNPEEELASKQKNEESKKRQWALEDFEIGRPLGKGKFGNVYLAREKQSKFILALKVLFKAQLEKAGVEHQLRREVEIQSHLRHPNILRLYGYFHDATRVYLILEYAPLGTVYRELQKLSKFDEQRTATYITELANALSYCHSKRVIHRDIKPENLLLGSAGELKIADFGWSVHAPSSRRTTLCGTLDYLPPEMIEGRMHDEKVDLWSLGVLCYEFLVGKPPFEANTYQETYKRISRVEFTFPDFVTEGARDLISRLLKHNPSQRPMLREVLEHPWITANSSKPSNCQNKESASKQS
# Description: as §1
SMILES,IC50 (NUAK2 (h)),IC50 (NUAK1),IC50 (Aurora A),"AUR-A (IC50, nM)/NUAK2 (IC50, nM) (NUAK2 (h); NUAK2 selectivity over Aurora-A, ratio of IC50s)"
"CN1CCc2cc(OC(F)F)c(Nc3ncc(Cl)c(Nc4ccsc4C(N)=O)n3)cc2C1 [Compound I-26, 3-((5-chloro-2-((6-(difluoromethoxy)-2-methyl-1,2,3,4-tetrahydroisoquinolin-7-yl)amino)pyrimidin-4-yl)amino)thiophene-2-carboxamide]",11 to 100 nM,101 to 1000 nM,101 to 1000 nM,–
"NC(=O)c1sccc1Nc1nc(Nc2ccc(N3CCCC3)cc2OC(F)F)ncc1Cl [Compound I-28, 3-((5-chloro-2-((2-(difluoromethoxy)-4-(pyrrolidin-1-yl)phenyl)amino)pyrimidin-4-yl)amino)thiophene-2-carboxamide]",101 to 1000 nM,11 to 100 nM,101 to 1000 nM,–
"C[C@H]1CN(C)CCN1c1ccc(Nc2ncc(Cl)c(Nc3ccsc3C(N)=O)n2)c(OC(F)F)c1 [Compound I-29, (S)-3-((5-chloro-2-((2-(difluoromethoxy)-4-(2,4-dimethylpiperazin-1-yl)phenyl)amino)pyrimidin-4-yl)amino)thiophene-2-carboxamide]",11 to 100 nM,11 to 100 nM,101 to 1000 nM,–
"NC(=O)c1ccsc1Nc1nc(Nc2ccc(N3CCCC3)cc2OC(F)F)ncc1Cl [Compound I-31, 2-((5-chloro-2-((2-(difluoromethoxy)-4-(pyrrolidin-1-yl)phenyl)amino)pyrimidin-4-yl)amino)thiophene-3-carboxamide]",> 1000 nM,101 to 1000 nM,> 1000 nM,–
"CN1C2CCC1CN(c1ccc(Nc3ncc(Cl)c(Nc4sccc4C(N)=O)n3)c(OC(F)F)c1)C2 [Compound I-32, 2-((5-chloro-2-((2-(difluoromethoxy)-4-(8-methyl-3,8-diazabicyclo[3.2.1]octan-3-yl)phenyl)amino)pyrimidin-4-yl)amino)thiophene-3-carboxamide]",11 to 100 nM,11 to 100 nM,101 to 1000 nM,–
"NC(=O)c1sccc1Nc1nc(Nc2ccc(N3CCN(CC(F)(F)F)CC3)cc2OC(F)F)ncc1Cl [Compound I-33, 3-((5-chloro-2-((2-(difluoromethoxy)-4-(4-(2,2,2-trifluoroethyl)piperazin-1-yl)phenyl)amino)pyrimidin-4-yl)amino)thiophene-2-carboxamide]",101 to 1000 nM,101 to 1000 nM,101 to 1000 nM,–
"NC(=O)c1ccsc1Nc1nc(Nc2ccc(N3CCN(CC(F)(F)F)CC3)cc2OC(F)F)ncc1Cl [Compound I-34, 2-((5-chloro-2-((2-(difluoromethoxy)-4-(4-(2,2,2-trifluoroethyl)piperazin-1-yl)phenyl)amino)pyrimidin-4-yl)amino)thiophene-3-carboxamide]",101 to 1000 nM,101 to 1000 nM,101 to 1000 nM,–
"CN1CCN(c2ccc(Nc3ncc(F)c(Nc4ccsc4C(N)=O)n3)c(OC(F)F)c2)CC1 [Compound I-37, 3-((2-((2-(difluoromethoxy)-4-(4-methylpiperazin-1-yl)phenyl)amino)-5-fluoropyrimidin-4-yl)amino)thiophene-2-carboxamide]",11 to 100 nM,11 to 100 nM,101 to 1000 nM,–
"NC(=O)c1sccc1Nc1nc(Nc2ccc(N3CCOCC3)cc2OC(F)F)ncc1C(F)(F)F [Compound I-39, 3-((2-((2-(difluoromethoxy)-4-morpholinophenyl)amino)-5-(trifluoromethyl)pyrimidin-4-yl)amino)thiophene-2-carboxamide]",11 to 100 nM,11 to 100 nM,101 to 1000 nM,–
"CN1CCN(C2CCN(c3ccc(Nc4ncc(Cl)c(Nc5ccsc5C(N)=O)n4)c(OC(F)F)c3F)CC2)CC1 [Compound I-40, 3-((5-chloro-2-((2-(difluoromethoxy)-3-fluoro-4-(4-(4-methylpiperazin-1-yl)piperidin-1-yl)phenyl)amino)pyrimidin-4-yl)amino)thiophene-2-carboxamide]",101 to 1000 nM,101 to 1000 nM,> 1000 nM,–

# Continued, values first:
IC50 (NUAK2 (h)),IC50 (NUAK1),IC50 (Aurora A),"AUR-A (IC50, nM)/NUAK2 (IC50, nM) (NUAK2 (h); NUAK2 selectivity over Aurora-A, ratio of IC50s)",SMILES
11 to 100 nM,11 to 100 nM,11 to 100 nM,–,"CC(C)(C)N1CCN(c2ccc(Nc3ncc(Cl)c(Nc4sccc4C(N)=O)n3)c(OC(F)F)c2)CC1 [Compound I-22, 2-((2-((4-(4-(tert-butyl)piperazin-1-yl)-2-(difluoromethoxy)phenyl)amino)-5-chloropyrimidin-4-yl)amino)thiophene-3-carboxamide]"
11 to 100 nM,11 to 100 nM,101 to 1000 nM,–,"C[C@H]1CN(c2ccc(Nc3ncc(Cl)c(Nc4sccc4C(N)=O)n3)c(OC(F)F)c2)CCN1C [Compound I-23, (S)-2-((5-chloro-2-((2-(difluoromethoxy)-4-(3,4-dimethylpiperazin-1-yl)phenyl)amino)pyrimidin-4-yl)amino)thiophene-3-carboxamide]"
11 to 100 nM,11 to 100 nM,11 to 100 nM,–,"NC(=O)c1sccc1Nc1nc(Nc2ccc(N3CCOCC3)cc2OC(F)F)ncc1Cl [Compound I-24, 3-((5-chloro-2-((2-(difluoromethoxy)-4-morpholinophenyl)amino)pyrimidin-4-yl)amino)thiophene-2-carboxamide]"
11 to 100 nM,11 to 100 nM,101 to 1000 nM,–,"CN1CCC(c2ccc(Nc3ncc(Cl)c(Nc4ccsc4C(N)=O)n3)c(OC(F)F)c2)CC1 [Compound I-25, 3-((5-chloro-2-((2-(difluoromethoxy)-4-(1-methylpiperidin-4-yl)phenyl)amino)pyrimidin-4-yl)amino)thiophene-2-carboxamide]"
0.1 to 10 nM,0.1 to 10 nM,101 to 1000 nM,–,"CN1CCN(c2ccc(Nc3ncc(C(F)(F)F)c(Nc4ccsc4C(N)=O)n3)c(OC(F)F)c2)CC1 [Compound I-27, 3-((2-((2-(difluoromethoxy)-4-(4-methylpiperazin-1-yl)phenyl)amino)-5-(trifluoromethyl)pyrimidin-4-yl)amino)thiophene-2-carboxamide]"
0.1 to 10 nM,11 to 100 nM,101 to 1000 nM,–,"NC(=O)c1sccc1Nc1nc(Nc2ccc(N3CCC(N4CCOCC4)CC3)cc2OC(F)F)ncc1Cl [Compound I-43, 3-((5-chloro-2-((2-(difluoromethoxy)-4-(4-morpholinopiperidin-1-yl)phenyl)amino)pyrimidin-4-yl)amino)thiophene-2-carboxamide]"
0.1 to 10 nM,11 to 100 nM,101 to 1000 nM,137,"NC(=O)c1sccc1Nc1nc(Nc2ccc(N3CCN4CCC[C@@H]4C3)cc2OC(F)F)ncc1Cl [Compound I-44, (R)-3-((5-chloro-2-((2-(difluoromethoxy)-4-(hexahydropyrrolo[1,2-a]pyrazin-2(1H)-yl)phenyl)amino)pyrimidin-4-yl)amino)thiophene-2-carboxamide]"
